Experimental data reported in article PMC12286339 (PLOS One, 2025).
Several values for one entry are separate records, joined by “and”; a condition that tells them apart may be missing. Identical values can stand only once.

Assays:
sheep = system: sheep; set-up: method as in earlier work; conditions: cumulative from multiple smaller doses; cited from earlier work
[1] = Pharmacokinetics in blood of C57BL/6 mice, 1st trial (single IV bolus, LC-MS, two-compartment model); assay type: in vivo; conditions: individual mice, Tun 10 mg/mL 30uL IV
Experimental: Eighty, 40 male (M) and 40 female (F), C57BL/6 mice were enrolled in the study on Day 0. Body weights, clinical observations, and digital caliper measurements were recorded. Eight (4M/4F) animals per treatment received a single 30uL intravenous bolus dose of the experimental samples (or control DMSO carrier) via the lateral tail vein, as shown in Fig 2A and S1 Table. […] After the first dosing, blood draws for the PK study were at 8-time points (5 min, 15 min, 30 min, 1 h, 2 h, 4 h, 6 h, 24 h). The mice were subdivided into 2 groups of 4 (2M/2F) mice each, with each subgroup having ~50 ul of blood collected via retro-orbital bleed for 4-time points (subgroup 1: 5 min, 30 min, 2h, and 6 h; subgroup 2: 15 min, 1h, 4h, and 24 h). In life, a collection of 50 μL of blood was diluted with 450 μL of ethanol and evaporated to dryness on a Speedvac evaporator under sterile conditions. The dried residues were stored at −80 °C and were shipped on dry ice to NCAUR, Peoria, for analysis. At the end of the study (24 h), the animals were euthanized, and terminal blood samples from all mice (100 µL) were collected via cardiac puncture, diluted with 900 μL of ethanol, and evaporated to dryness on a Speedvac. The dried residues are stored at −80 °C until ready for analysis.
For the comparative PK of tunicamycins in blood, drug concentrations were measured by LC–MS/MS as previously described. Different compartmental models (0, 1, or 2 compartments) and weighting options were assessed for goodness of fit by visual inspection of the observed versus predicted plots, weighted residual versus observed and predicted plots, and comparison of Akaike Information Criterion (AICc) values. A two-compartment IV bolus model was determined to describe the data best (S1 Fig).
Pharmacokinetic parameters were calculated by two-compartmental using a linear regression analysis and residuals method to calculate using Microsoft Excel 2024 using standard equations (Atkinson; 2007; Miyamato et al., 2019). Details about the PK equations to calculate drug concentrations and PK parameters are listed in the S1 Appendix.

[2] = 2nd mouse trial: co-administration with oxacillin, drug in blood, liver, heart and brain; conditions: 24 h after 30uL IV of Tun 6.7 mg/mL + oxacillin 6.7 mg/mL, individual mice
Experimental: In the second trial, which was a drug co-localization study, forty (20 male and 20 female) C57BL/6 mice were enrolled on Study Day 0 and were dosed according to the experimental design shown in Fig 2A and S3 Table. Body weights and clinical observations were recorded as before. […] Blood samples were taken (50 μL) 5 min, 15 min, 30 min, 1h, 2h, 4h, 6h, and 24h post-injection. At the end of the study (24 h post dose) the mice were euthanized by CO2 asphyxiation, and liver, brain and heart were collected. The organs were homogenized in ethanol, then filtered to remove solids, and the ethanolic filtrate dried by Speedvac evaporation. The dried residues were stored at −80 °C and shipped on dry ice. Drug concentrations in tissue were measured by LC–MS/MS as previously described.

[3] = in vivo; cited from earlier work

| Molecule | oral lethal dose (sheep) [mg/kg] | N-acyl variants in blood (1st trial) ([1]; time 0:05:00 (5 min)) | N-acyl variants in blood (1st trial) ([1]; time 0:15:00 (15 min)) | N-acyl variants in blood (1st trial) ([1]; time 0:30:00 (30 min)) | N-acyl variants in blood (1st trial) ([1]; time 1:00:00 (1 h)) | N-acyl variants in blood (1st trial) ([1]; time 2:00:00 (2 h)) [µg/mL] | N-acyl variants in blood (1st trial) ([1]; time 4:00:00 (4 h)) [µg/mL] | N-acyl variants in blood (1st trial) ([1]; time 6:00:00 (6 h)) [µg/mL] | N-acyl variants in blood (1st trial) ([1]; time 24:00:00 (24 h)) [µg/mL] | N-acyl variants in brain (2nd trial) [2] [µg/mL] | N-acyl variants in heart (2nd trial) [2] [µg/mL] | N-acyl variants in liver (2nd trial) [2] | estimated t1/2 [3] [min] |
| --- | --- | --- | --- | --- | --- | --- | --- | --- | --- | --- | --- | --- | --- |
| corynetoxins [Cnx] | 3.2 to 5.6 | – | – | – | – | – | – | – | – | – | – | – | – |
| CCC(C)CCCCCCCC/C=C/C(=O)N[C@H]1[C@H](O[C@H]2O[C@H](CO)[C@@H](O)[C@H](O)[C@H]2NC(C)=O)O[C@H](C[C@@H](O)[C@H]2O[C@@H](n3ccc(=O)[nH]c3=O)[C@H](O)[C@@H]2O)[C@H](O)[C@@H]1O (some centres unmarked) [C15a] | – | 0.654 µg/mL and 0.6 µg/mL and 0 µg/mL | 0 ug/mL (3×) and 0.45 ug/mL | 0 µg/mL | 0 µg/mL | 0 | 0 | 0 | 0 | 0 | 0 | 0 µg/mL and 0.03337 µg/mL and 0.02831 µg/mL | – |
| CC(=O)N[C@H]1[C@@H](O[C@@H]2O[C@H](C[C@@H](O)[C@H]3O[C@@H](n4ccc(=O)[nH]c4=O)[C@H](O)[C@@H]3O)[C@H](O)[C@H](O)[C@H]2NC(=O)/C=C/CCCCCCCCCC(C)C)O[C@H](CO)[C@@H](O)[C@@H]1O [C15i] | – | 4.16 µg/mL and 5.09 µg/mL and 2.96 µg/mL | 3.05 µg/mL and 3.14 µg/mL and 1.44 µg/mL and 3.28 µg/mL | 0 ug/mL (2×) and 0.88 ug/mL and 1.74 ug/mL | 0 ug/mL (2×) and 0.77 ug/mL and 1.66 ug/mL | 0 | 0 | 0 | 0 | 0 | 0 | 0 µg/mL and 0.05015 µg/mL and 0.3411 µg/mL and 0.2948 µg/mL | – |
| Cc1onc(-c2ccccc2)c1C(=O)N[C@@H]1C(=O)N2[C@@H]1SC(C)(C)[C@@H]2C(=O)O [oxacillin] | – | – | – | – | – | – | – | – | – | – | – | – | 7.8 |
| CCCCCCCCCCCCCC/C=C/C(=O)N[C@H]1[C@H](O[C@H]2O[C@H](CO)[C@@H](O)[C@H](O)[C@H]2NC(C)=O)O[C@H](C[C@@H](O)[C@H]2O[C@@H](n3ccc(=O)[nH]c3=O)[C@H](O)[C@@H]2O)[C@H](O)[C@@H]1O [C17s] | – | 0 µg/mL | 0 µg/mL | 0 µg/mL | 0 µg/mL | 0 | 0 | 0 | 0 | 0 | 0 | 0 µg/mL and 0.1695 µg/mL and 0.1754 µg/mL | – |
